The values that follow are results of earlier work, collected in patent publication EP0540813B1, “Sustained release formulations of acetazolamide” (AMERICAN CYANAMID COMPANY, priority 1991, dated 1993).

The conditions of this series: reported in the literature.

Take `CC(=O)Nc1nnc(S(N)(=O)=O)s1` [acetazolamide, N-(5-sulphamoyl-1,3,4-thiadiazol-2-yl)acetamide]: the “plasma levels considered toxic” value is on record as “above 30 µg/ml” and the therapeutic plasma range was 5 to 10 µg/mL.
